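Grown in 96-well plates, cells were treated for 48 hours with each compound at five concentrations. Insufficient inhibition: endpoint recorded as highest concentration tested. GI50 = concentration required for 50% inhibition of growth. TGI denotes the concentration required for complete inhibition of growth.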
Columns and labels:
Assay in all cases: inhibition of tumour cell growth, NCI panel, 48 h
[1] = system: HS 578T breast
[2] = system: HOP-62 NSCLC
[3] = system: OVCAR-8 ovarian
[4] = system: EKVX NSCLC
[5] = system: HL-60(TB) leukemia
[6] = system: IGROV1 ovarian
[7] = system: SK-MEL-28 melanoma
[8] = system: T-47D breast
[9] = system: NCI-H522 lung
[10] = system: SF-539 CNS
[11] = system: RXF 393 renal
[12] = system: PC-3 prostate
[13] = system: MDA-MB-468 breast
[14] = system: NCI/ADR-RES ovarian
[15] = system: RPMI-8226 leukemia
[16] = system: HCT-116 colon
[17] = system: MCF7 breast
[18] = system: A549 NSCLC
[19] = system: SK-OV-3 ovarian
[20] = system: MOLT-4 leukemia
[21] = system: UO-31 renal
[22] = system: COLO 205 colon
[23] = system: UACC-257 melanoma
[24] = system: K-562 leukemia
[25] = system: DU-145 prostate
[26] = system: BT-549 breast
[27] = system: U251 CNS
[28] = system: OVCAR-3 ovarian
[29] = system: MALME-3M melanoma
[30] = system: CAKI-1 renal
[31] = system: SK-MEL-5 melanoma
[32] = system: HCT-15 colon
[33] = system: SNB-75 CNS
[34] = system: HOP-92 NSCLC
[35] = system: 786-0 renal
[36] = system: SN12C renal
[37] = system: SF-295 CNS
[38] = system: SNB-19 CNS
[39] = system: KM12 colon
[40] = system: NCI-H226 lung
[41] = system: A498 renal
[42] = system: HT29 colon
[43] = system: M14 melanoma
[44] = system: NCI-H23 lung
[45] = system: NCI-H460 lung
[46] = system: LOX IMVI melanoma
[47] = system: TK-10 renal
[48] = system: UACC-62 melanoma
[49] = system: MDA-MB-435
[50] = system: OVCAR-4 ovarian
[51] = system: SW-620 colon
[52] = system: MDA-MB-231 breast
[53] = system: SF-268 CNS
[54] = system: OVCAR-5 ovarian
[55] = system: CCRF-CEM leukemia
[56] = system: HCC-2998 colon
[57] = system: ACHN renal
[58] = system: SK-MEL-2 melanoma

CN(C)CCOc1ccc(C(=O)C2[C@H](c3ccc(Cl)cc3)[C@@H](c3ccccc3)NC23C(=O)Nc2ccccc23)cc1 (some centres not stated)
GI50 [1]: 3.88 µM
TGI [1]: > 18.5 µM
GI50 [2]: 6.6 µM
TGI [2]: > 18.5 µM
GI50 [3]: 4.56 µM
TGI [3]: 11 µM
GI50 [4]: 3.03 µM
TGI [4]: 6.21 µM
GI50 [5]: 4.11 µM
TGI [5]: 11.2 µM
GI50 [6]: 10.4 µM
TGI [6]: > 18.5 µM
GI50 [7]: 3.05 µM
TGI [7]: 5.62 µM
GI50 [8]: 9.41 µM
TGI [8]: > 18.5 µM
GI50 [9]: 7.52 µM
TGI [9]: > 18.5 µM
GI50 [10]: 3.14 µM
TGI [10]: 6.01 µM
GI50 [11]: 2.88 µM
TGI [11]: 12 µM
GI50 [12]: 3.77 µM
TGI [12]: 11.2 µM
GI50 [13]: 2.91 µM
TGI [13]: 5.74 µM
GI50 [14]: 5.9 µM
TGI [14]: > 18.5 µM
GI50 [15]: 3.95 µM
TGI [15]: 11.3 µM
GI50 [16]: 2.96 µM
TGI [16]: 5.51 µM
GI50 [17]: 3.18 µM
TGI [17]: 6.32 µM
GI50 [18]: 5.95 µM
TGI [18]: > 18.5 µM
GI50 [19]: > 18.5 µM
TGI [19]: > 18.5 µM
GI50 [20]: 3.3 µM
TGI [20]: 8.62 µM
GI50 [21]: 6.9 µM
TGI [21]: > 18.5 µM
GI50 [22]: 3.58 µM
TGI [22]: 6.93 µM
GI50 [23]: 3.38 µM
TGI [23]: 7.54 µM
GI50 [24]: 3.86 µM
TGI [24]: 11.7 µM
GI50 [25]: 5.78 µM
TGI [25]: > 18.5 µM
GI50 [26]: > 18.5 µM
TGI [26]: > 18.5 µM
GI50 [27]: 3.13 µM
TGI [27]: 6.07 µM
GI50 [28]: 3.41 µM
TGI [28]: 7.55 µM
GI50 [29]: 2.92 µM
TGI [29]: 5.48 µM
GI50 [30]: 4.5 µM
TGI [30]: > 18.5 µM
GI50 [31]: 3.11 µM
TGI [31]: 5.99 µM
GI50 [32]: 3.68 µM
TGI [32]: 8.25 µM
GI50 [33]: 4.58 µM
TGI [33]: > 18.5 µM
GI50 [34]: 3.03 µM
TGI [34]: 12.7 µM
GI50 [35]: 3.14 µM
TGI [35]: 5.83 µM
GI50 [36]: 10.6 µM
TGI [36]: > 18.5 µM
GI50 [37]: 3.22 µM
TGI [37]: 6.52 µM
GI50 [38]: 8.07 µM
TGI [38]: > 18.5 µM
GI50 [39]: 3.56 µM
TGI [39]: 7.3 µM
GI50 [40]: 7.97 µM
TGI [40]: > 18.5 µM
GI50 [41]: > 18.5 µM
TGI [41]: > 18.5 µM
GI50 [42]: 3.32 µM
TGI [42]: 7.13 µM
GI50 [43]: 2.89 µM
TGI [43]: 5.69 µM
GI50 [44]: 3.95 µM
TGI [44]: 9.94 µM
GI50 [45]: 3.29 µM
TGI [45]: 6.17 µM
GI50 [46]: 2.62 µM
TGI [46]: 5.02 µM
GI50 [47]: > 18.5 µM
TGI [47]: > 18.5 µM
GI50 [48]: 2.88 µM
TGI [48]: 5.59 µM
GI50 [49]: 3.04 µM
TGI [49]: 5.99 µM
GI50 [50]: 8.79 µM
TGI [50]: > 18.5 µM
GI50 [51]: 3.13 µM
TGI [51]: 6.05 µM
GI50 [52]: 3.55 µM
TGI [52]: 10.2 µM
GI50 [53]: 9.62 µM
TGI [53]: > 18.5 µM
GI50 [54]: 4.41 µM
TGI [54]: > 18.5 µM
GI50 [55]: 3.98 µM
TGI [55]: 13.2 µM
GI50 [56]: 3.07 µM
TGI [56]: 5.76 µM
GI50 [57]: 4.33 µM
TGI [57]: 11.7 µM
GI50 [58]: 3.6 µM
TGI [58]: 7.11 µM

FC(F)(F)CN1CCN(CCn2c(C(F)(F)F)cc3c(Cl)ncnc32)CC1
GI50 [1]: 14.2 µM
TGI [1]: 59.8 µM
GI50 [2]: 13.8 µM
TGI [2]: 32.5 µM
GI50 [3]: 3.2 µM
TGI [3]: 11.7 µM
GI50 [4]: 11.6 µM
TGI [4]: 40.4 µM
GI50 [5]: 2.75 µM
TGI [5]: 8.18 µM
GI50 [6]: 1.78 µM
TGI [6]: 3.54 µM
GI50 [7]: 8.13 µM
TGI [7]: 37.4 µM
GI50 [8]: 17.3 µM
TGI [8]: 63.7 µM
GI50 [9]: 1.7 µM
TGI [9]: 3.52 µM
GI50 [10]: 12.6 µM
TGI [10]: 28.7 µM
GI50 [11]: 11 µM
TGI [11]: 28.1 µM
GI50 [12]: 3.53 µM
TGI [12]: 12 µM
GI50 [13]: 2.19 µM
TGI [13]: 4.94 µM
GI50 [14]: 19 µM
TGI [14]: 46.6 µM
GI50 [15]: 23.7 µM
TGI [15]: 77.4 µM
GI50 [16]: 3.16 µM
TGI [16]: 13.3 µM
GI50 [17]: 10 µM
TGI [17]: 42.6 µM
GI50 [18]: 52.9 µM
TGI [18]: > 100 µM
GI50 [19]: 16.2 µM
TGI [19]: 43.2 µM
GI50 [20]: 2.4 µM
TGI [20]: 9.2 µM
GI50 [21]: 1.63 µM
TGI [21]: 3.27 µM
GI50 [22]: 18.4 µM
TGI [22]: 46.2 µM
GI50 [23]: 4.09 µM
TGI [23]: 16.9 µM
GI50 [24]: 2.8 µM
TGI [24]: > 100 µM
GI50 [25]: 12.5 µM
TGI [25]: 32.8 µM
GI50 [26]: 13 µM
TGI [26]: 26.8 µM
GI50 [27]: 2.4 µM
TGI [27]: 6.43 µM
GI50 [28]: 14.3 µM
TGI [28]: 34.4 µM
GI50 [29]: 14.5 µM
TGI [29]: 32 µM
GI50 [30]: 13.6 µM
TGI [30]: 30.6 µM
GI50 [31]: 3.73 µM
TGI [31]: 13.7 µM
GI50 [32]: 2.55 µM
TGI [32]: 7.37 µM
GI50 [33]: 3.11 µM
TGI [33]: 14.2 µM
GI50 [34]: 12.9 µM
TGI [34]: 29.2 µM
GI50 [35]: 22.3 µM
TGI [35]: 60.7 µM
GI50 [36]: 7.75 µM
TGI [36]: 23.1 µM
GI50 [37]: 10.3 µM
TGI [37]: 25.9 µM
GI50 [38]: 13.2 µM
TGI [38]: 26.8 µM
GI50 [39]: 17.9 µM
TGI [39]: 39.9 µM
GI50 [40]: 17.4 µM
TGI [40]: 72.8 µM
GI50 [41]: 21.3 µM
TGI [41]: 57.4 µM
GI50 [42]: 5.46 µM
TGI [42]: 36.6 µM
GI50 [43]: 6.19 µM
TGI [43]: 23.1 µM
GI50 [44]: 5.84 µM
TGI [44]: 26.6 µM
GI50 [45]: 2.66 µM
TGI [45]: 6.73 µM
GI50 [46]: 1.68 µM
TGI [46]: 3.1 µM
GI50 [47]: 35.5 µM
TGI [47]: > 100 µM
GI50 [48]: 4.69 µM
TGI [48]: 18.1 µM
GI50 [49]: 5.5 µM
TGI [49]: 19.5 µM
GI50 [50]: 26.8 µM
TGI [50]: > 100 µM
GI50 [51]: 4.86 µM
TGI [51]: 19.5 µM
GI50 [52]: 1.76 µM
TGI [52]: 4.28 µM
GI50 [53]: 5.2 µM
TGI [53]: 21.4 µM
GI50 [54]: > 100 µM
TGI [54]: > 100 µM
GI50 [55]: 4.37 µM
TGI [55]: > 100 µM
GI50 [56]: 1.83 µM
TGI [56]: 3.28 µM
GI50 [57]: 12.3 µM
TGI [57]: > 100 µM
GI50 [58]: 15.7 µM
TGI [58]: 30.9 µM

Source: PubChem BioAssay (NCI)
